According to patent EP4617273A1, “FUSED TRICYCLIC PARP1 INHIBITOR, PREPARATION METHOD THEREFOR, AND USE THEREOF” (Haihe Biopharma Co., Ltd., priority 2022, dated 2024):

Target: Recombinant human PARP1 protein (Homo sapiens, UniProt P09874)
Assay: biochemical
Procedure: The PARP1/2 inhibitory activity of the compounds of the present invention was tested in an assay using Histone as a substrate.
Aim of the assay: to test the PARP1/2 enzymatic activity inhibition IC50 values of the compounds of the present application according to established experimental methods.
1. Compound Configuration: Dilute the compounds with DMSO in 384-well plates to a 1000-fold final concentration and set aside.
1) Dilute Histone with PBS, add 25uL of Histone mixture to each well and incubate for 2 h. 2) Wash each well 5 times using PBST solution. Remove the solution with a clean paper towel.3) Add 75 uL of Blocking buffer to each well and incubate for 1 h at rt. 4) Wash each well 5 times using PBST solution. Remove the solution with a clean paper towel.
2) Use 1× Assay buffer to prepare 2.5× final concentration of PARP1 solution. 3) Add 10 uL of enzyme solution to the compound wells and Max control wells; add 10 uL of 1× Assay buffer. […] 6) Centrifuge at 1000 rpm for 60 seconds and incubate at rt for 2 h. 7) Each well was washed 5 times with PBST solution. Remove the solution with a clean paper towel.
1) Prepare Streptavidin-HRP solution, add 25 µL to each well, centrifuge at 1000 rpm for 60 sec, and incubate at rt for 30 min. 2) Wash each well 5 times using PBST solution. Remove the solution with a clean paper towel. 3) Add 50 µL of ELISA Chemiluminescent Substrate per well. 4) Centrifuge at 1000 rpm for 60 seconds and read with EnSight after 5 min.
The inhibition rate was calculated using the following formula: % inhibition = (max signal - compound signal) / (max signal - min signal) × 100, where 'min signal' is the mean value of negative control wells and 'max signal' is the mean value of positive control wells.
Fitting the quantitative effect curve: using the log value of the concentration as the X-axis and the percentage inhibition as the Y-axis; using the log(inhibitor) vs. response-variable slope method in software GraphPadPrism5 to fit the quantitative effect curve to calculate the IC50 value for the inhibition of the enzyme activity by the compounds of the present invention. The fitting formula is: Y=Bottom+ (Top-Bottom)/(1+10^((logIC50-X)*HillSlope)).

Sequence of Recombinant human PARP1 protein (P09874 whole entry): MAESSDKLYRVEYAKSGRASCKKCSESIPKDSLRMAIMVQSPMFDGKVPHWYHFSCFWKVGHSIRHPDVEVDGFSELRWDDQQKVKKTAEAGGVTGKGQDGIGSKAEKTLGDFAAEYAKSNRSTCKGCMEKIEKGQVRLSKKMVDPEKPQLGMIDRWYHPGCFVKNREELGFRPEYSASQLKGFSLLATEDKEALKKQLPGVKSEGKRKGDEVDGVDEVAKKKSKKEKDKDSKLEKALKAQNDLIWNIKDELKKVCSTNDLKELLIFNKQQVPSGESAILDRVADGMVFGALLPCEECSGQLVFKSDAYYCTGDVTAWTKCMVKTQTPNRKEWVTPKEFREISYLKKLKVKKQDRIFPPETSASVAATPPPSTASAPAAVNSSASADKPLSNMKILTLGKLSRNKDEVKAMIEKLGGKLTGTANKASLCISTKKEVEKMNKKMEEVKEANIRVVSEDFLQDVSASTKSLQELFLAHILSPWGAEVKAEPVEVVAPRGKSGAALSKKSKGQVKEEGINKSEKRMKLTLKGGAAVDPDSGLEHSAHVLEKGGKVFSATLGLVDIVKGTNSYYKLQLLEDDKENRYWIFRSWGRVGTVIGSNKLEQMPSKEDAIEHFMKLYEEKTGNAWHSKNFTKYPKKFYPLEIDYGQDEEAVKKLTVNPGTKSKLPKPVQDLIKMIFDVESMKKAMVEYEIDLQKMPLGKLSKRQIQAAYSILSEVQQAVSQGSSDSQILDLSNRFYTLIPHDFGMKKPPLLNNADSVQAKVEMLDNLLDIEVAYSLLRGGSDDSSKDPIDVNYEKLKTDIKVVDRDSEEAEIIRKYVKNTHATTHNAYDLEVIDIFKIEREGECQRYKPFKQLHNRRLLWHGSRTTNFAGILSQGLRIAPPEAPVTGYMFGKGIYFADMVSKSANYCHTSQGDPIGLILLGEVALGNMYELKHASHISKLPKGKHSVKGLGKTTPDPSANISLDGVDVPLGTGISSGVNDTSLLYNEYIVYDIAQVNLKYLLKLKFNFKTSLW

Compound | IC50 [nM]
CNC(=O)c1ccc(N2CCN(Cc3ccc4c(c3)[nH]c(=O)c3cnn(C)c34)CC2)c(F)n1 [Compound 16] | 0.22
CNC(=O)c1ccc(N2CCN(C(C)c3ccc4c([nH]c(=O)c5cn(C)nc54)c3F)CC2)c(F)n1 (centres unmarked) [Compound 19] | 273
CNC(=O)c1ccc(N2CCN(Cc3ccc4c([nH]c(=O)c5cnnn54)c3F)CC2)c(F)n1 [Compound 26] | 17.7
CNC(=O)c1ccc(N2CCN(Cc3ccc4c([nH]c(=O)c5sccc54)c3F)CC2)c(F)n1 [Compound 77] | 0.6
CNC(=O)c1ccc(N2CCN(Cc3ccc4c([nH]c(=O)c5cscc54)c3F)CC2)c(F)n1 [Compound 80] | 0.85
CC(c1ccc2c([nH]c(=O)c3ccnn32)c1F)N1CCN(c2ccc(C#N)cn2)CC1 (centres unmarked) [Compound 98] | 18.4
CC(c1ccc2c([nH]c(=O)c3ccnn32)c1F)N1CCN(c2ccc(F)cc2F)CC1 (centres unmarked) [Compound 99] | 571
O=C(N[C@@H]1CCOC1)c1ccc(N2CCN(Cc3ccc4c([nH]c(=O)c5ccnn54)c3F)CC2)c(F)n1 [Compound 112] | 14.2
CNC(=O)c1ccc(N2CCN(Cc3ccc4c(c3)[nH]c(=O)n3cc(C)nc43)CC2)c(F)n1 [Compound 117] | 0.5
CCNC(=O)c1ccc(N2CCN(Cc3ccc4c(c3F)NC(=O)N3CCN=C43)CC2)c(F)n1 [Compound 128] | 2.2
CNC(=O)c1ccc(N2CCN(Cc3cc4c(cc3Cl)C3=NCCN3C(=O)N4)CC2)c(F)n1 [Compound 135] | 9.6
CCNC(=O)c1ccc(N2CCN(Cc3ccc4c(c3F)NC(=O)N3CCCN=C43)CC2)c(F)n1 [Compound 171] | 0.7
CNC(=O)c1ccc(N2CCN(Cc3ccc4c(c3)NC(=O)N3CCCN=C43)CC2)c(C)n1 [Compound 192] | 1
O=C1Nc2c(ccc(CN3CCN(c4ccc(F)cc4F)CC3)c2F)C2=NCCCN12 [Compound 195] | 40.8
O=C(NC1CC1)c1ccc(N2CCN(Cc3ccc4c(c3F)NC(=O)N3CCCN=C43)CC2)c(Cl)n1 [Compound 202] | 1.6

The next lines start with the values.

IC50 [nM] | Compound
7.3 | CNC(=O)c1ccc(N2CCN(Cc3ccc4c(c3C)NC(=O)N3CCN=C43)CC2)c(F)n1 [Compound 127]
3.4 | Cc1nc(C(=O)NC2CC2)ccc1N1CCN(Cc2ccc3c(c2F)NC(=O)N2CCN=C32)CC1 [Compound 130]
4.6 | CNC(=O)c1ccc(N2CCN(Cc3ccc4c(c3F)NC(=O)N3CC[C@@H](C)N=C43)CC2)c(F)n1 [Compound 143]
1.13 | CCNC(=O)c1ccc(N2CCN(Cc3ccc4c(c3F)NC(=O)N3CCCN=C43)CC2)c(C)n1 [Compound 184]
0.95 | C[C@@H]1CN2C(=O)Nc3c(ccc(CN4CCN(c5ccc(C#N)cn5)CC4)c3F)C2=N1 [Compound 187]
0.67 | CNC(=O)c1ccc(N2CCN(Cc3ccc4c(c3)NC(=O)N3C[C@@H](C)N=C43)CC2)c(Cl)n1 [Compound 189]
0.34 | CNC(=O)c1ccc(N2CCN(Cc3ccc4c(c3)NC(=O)N3C[C@@H](C)N=C43)CC2)c(C)n1 [Compound 190]
1.7 | CNC(=O)c1ccc(N2CCN(Cc3ccc4c(c3F)NC(=O)N3C[C@@H](C)N=C43)CC2)cn1 [Compound 193]
2.2 | CNC(=O)c1ccc(C2CCN(Cc3ccc4c(c3F)NC(=O)N3C[C@@H](C)N=C43)CC2)c(Cl)n1 [Compound 194]
0.3 | CNC(=O)c1ccc(N2CCN(Cc3ccc4c(c3F)NC(=O)N3C[C@@H](C)N=C43)[C@H](C)C2)c(Cl)n1 [Compound 197]
0.5 | C[C@@H]1CN2C(=O)Nc3c(ccc(CN4CCN(c5ccc(C(=O)NCC(F)F)nc5Cl)CC4)c3F)C2=N1 [Compound 198]
0.6 | CNC(=O)c1ccc(O[C@H]2CN(Cc3ccc4c(c3F)NC(=O)N3C[C@@H](C)N=C43)[C@@H]2C)cn1 [Compound 199]
1.4 | CNC(=O)c1ccc(N2CCN(Cc3ccc4c(c3F)NC(=O)N3C[C@@H](C)N=C43)CC2)c(C(F)F)n1 [Compound 203]
1.5 | CNC(=O)c1ccc(N2CCN(Cc3ccc4c(c3F)NC(=O)N3CCCN=C43)CC2)c(C(F)F)n1 [Compound 204]
